Here are results for ten compounds from US8791132B2, “Compounds and methods for treatment of hypertension” (Medivation Technologies, Inc., priority 2011, dated 2014).

Broadly, the Ki is a measure of affinity in units of concentration, obtained from inhibition or displacement. As a reminder, the inhibition is the percentage by which the read-out fell short of the control.

Assay [1] addresses T1, rat adrenergic α1B receptor (Rattus norvegicus, UniProt P15823).
T1 construct: rat adrenergic α1B receptor obtained from Wistar Rat liver; from tissue; host or cells: Wistar rat liver
T1 sequence (P15823 1-515): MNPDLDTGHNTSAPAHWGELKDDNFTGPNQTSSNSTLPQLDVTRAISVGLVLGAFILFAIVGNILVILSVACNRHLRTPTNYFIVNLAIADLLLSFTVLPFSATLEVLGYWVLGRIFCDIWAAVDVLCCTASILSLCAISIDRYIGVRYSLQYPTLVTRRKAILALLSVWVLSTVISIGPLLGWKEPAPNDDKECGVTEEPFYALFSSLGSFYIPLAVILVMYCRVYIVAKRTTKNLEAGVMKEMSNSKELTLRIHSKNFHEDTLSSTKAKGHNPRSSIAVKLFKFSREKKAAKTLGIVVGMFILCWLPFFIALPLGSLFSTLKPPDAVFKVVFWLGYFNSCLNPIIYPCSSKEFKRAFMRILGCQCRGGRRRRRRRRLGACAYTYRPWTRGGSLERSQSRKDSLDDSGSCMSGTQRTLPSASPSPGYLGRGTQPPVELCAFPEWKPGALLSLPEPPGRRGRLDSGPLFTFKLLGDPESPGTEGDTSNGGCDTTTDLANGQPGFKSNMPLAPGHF
Put plainly: Radioligand binding, adrenergic α1B ([3H]Prazosin). Conditions: for Percentage inhibition of ligand binding, Adrenergic α1B / Percentage inhibition of ligand binding, Adrenergic α1B (0.03 μM) / Percentage inhibition of ligand binding, Adrenergic α1B (0.1 μM) / inhibition at 0.03 µM / inhibition at 0.1 µM: [3H]Prazosin. In a few lines: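 Filter binding with Wistar rat liver α1B preparation: test compound plus 0.25 nM [3H]prazosin, 1 h at 25° C in modified Tris-HCl buffer pH 7.4.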

Assay [2] concerns spontaneously hypertensive rats (SHR). Put plainly: Blood pressure in spontaneously hypertensive rat (SHR) model of hypertension. It counts as in vivo. Conditions: for systolic blood pressure lowering effects: escalating doses 1, 3, 10 and 30 mg/kg/iv for every 30 minutes (FIGS. 20-22). Here is the method: Male spontaneously hypertensive rats (SHR), approximately 3 months of age and weighting approximately 250 grams were utilized. Free access to standard lab chow for rats and reverse osmosis (RO) water was granted. All aspects of this work, including housing, experimentation and disposal of animals were performed in general accordance with the Guide for the Care and Use of Laboratory Animals (National Academy Press, Washington, D.C., 1996).
The animals were anaesthetized with sodium pentobarbital (50 mg/kg IP). The left carotid artery when compound dosed orally (PO) or subcutaneously (SC); and both left carotid and femoral artery when compound dosed intravenous (i.v.) were cannulated with a polyethylene catheter (38 cm in length; PE60, Portex, Ltd.) connected with a polyurethane tubing (12 cm in length; PU-40, Cat. #BB520-40, Scientific Commodities, Inc.), which was tunneled under the skin and exited through the nape of the neck. The arterial cannula was connected to a pressure transducer through a swivel system, allowing free roaming during continuous recording of mean arterial pressure and heart rate. The animals were housed individually with food and water freely available during recovery. On the following day, the arterial cannula was connected via a Statham (P 23×L) pressure transducer to a NEC/San-Ei amplifier and data acquisition and analysis system (Power Lab 8/SP) for direct mean arterial pressure and heart rate measurements.
The test compounds, dissolved in sterile saline, were administered subcutaneously (SC) or orally (PO), or by intravenous (i.v.) bolus administration in two minutes or the escalating doses of compound administration in every 30 minutes, with each dose and its strength delivered over 2 minutes as shown in the respective figures; the internal standard phentolamine was given by oral gavage. The control group received vehicle alone. Immediately before (−10 min and −5 min) and at 15 min, 30 min, 1 hr, 1.5 hr, 2 hr, 2.5 hr, 3 hr, 3.5 hr, and 4 hr post-dosing, systolic pressure blood pressure values were recorded.

A further assay relates to healthy dogs. The assay is described as follows: Blood pressure in healthy beagle dogs (telemetry). It is filed as in vivo, dog. The source says: Four adult beagle dogs of both sex and weighted around 10 kg were chosen for the acute studies after a preliminary qualitative electrocardiogram/ECG, clinical pathology and physical examination. Upon arrival at the laboratory, the dogs were weighed and acclimated for a period of one week. Lab Diet certified canine diet #5007, PMI Nutrition International Inc was made available ad libitum to all dogs except during fasting periods. The dogs were surgically implanted with a pressure transducer equipped telemetry transmitter under sodium pentobarbitone anesthesia. The transmitter assembly was secured internally, the fluid-filled catheter was placed into an appropriate artery.
In the acute studies, the test compounds 3b and 5b at different doses (dosing sequences provided in Table B7 for compound 3b and Table B8 for compound 5b) was administered by oral gavage, 30 minutes prior to intravenous dexmedetomidine (5 μg/kg) challenge. Dexmedetomidine administration was enabled by prior placement of a peripheral intravenous line. The same four dogs were received all four treatments in the order noted in the table below, with at least a 3-day washout period between treatments.
In another acute study with compound 41a, the test agent was administered a dose of 6 mg/kg by oral gavage to 4 healthy dogs; and the blood pressure monitored for a period of 4 hours.
For the chronic study mode (see Table B9), the test compound 3b at 3 doses was administered by oral gavage once on day 1 and then twice/day on days 2 to 14, and finally once on day 15. The dexmedetomidine was administered on day-4 to check its effectiveness in inducing blood pressure, and once following the morning dose of compound 3b or vehicle on days 2, 7 and 14. Blood pressure and heart rate data were collected 1 h prior & 4 h post-morning dose on days 1, 2, 7, 14 and 15 to allow the appropriate data comparisons. Blood aliquots were saved at 4 h post-morning dose for exposure determination.
In both acute and chronic studies, dogs were weighed before dosing. Cardiovascular evaluations at each dose of test compound were collected with animals gently restrained in a sling. Dogs were placed in the sling at least 1 hour prior to dose administration, and after at least 30 minutes of stable baseline data collection. The dogs were monitored continuously for 3-4 hours subsequent to test compound administration and summarized in 5-minute bins. The systolic blood pressure was collected.

Setting [3] is: compound at 0.03 μM, repeat assays, each datapoint shown, 0.03 µM.
[4] abbreviates: compound at 0.1 μM, repeat assays, each datapoint shown, 0.1 µM.
The mark [5] stands for this setting: SC or PO, 4 hour study period (FIGS. 7-10).
Where [6] appears, read: compound at 0.03 μM, repeat datapoints each shown, 0.03 µM.
Where [7] appears, read: compound at 0.1 μM, repeat datapoints each shown, 0.1 µM.
Setting [8] is: read-out: Percentage inhibition of ligand binding, Adrenergic α1B (0.03 μM), compound at 0.03 μM, repeat datapoints each shown.
Where [9] appears, read: compound at 0.03 μM, repeat assays, each datapoint shown, read-out: Percentage inhibition of ligand binding, Adrenergic α1B.
Where [10] appears, read: compound at 0.1 μM, repeat assays, each datapoint shown, read-out: Percentage inhibition of ligand binding, Adrenergic α1B.

Several values for one entry are separate records, joined by “and”; a condition that tells them apart may be missing. Equal entries are not always repeated. Where two headings read alike, the source gives them in different places.

The compound `Cc1ccc2c(c1)c1c(n2CC(O)c2ccncc2)CCN(C)C1` (single isomer, unassigned) [3b] had a Ki in assay [1] of 51 nM. The “Percentage inhibition of ligand binding, Adrenergic α1B” value is 27% and 32% and 34% in assay [1] (setting [3]); 50% and 55% and 57% and 61% in assay [1] (setting [4]). Moreover, the systolic blood pressure result was “lowered systolic blood pressure” in assay [2] (setting [5]); “dose-dependently reduced systolic blood pressure” with healthy dogs (acute studies, oral gavage); “dose dependently reduced systolic blood pressure” in the assay on healthy dogs (chronic study, oral, day 1 and 15).
Consider `Cc1ccc2c(c1)c1c(n2CC(O)c2ccc(C(N)=O)nc2)CCN(C)C1` (single isomer, unassigned) [144b, 5-[2-(2,8-dimethyl-1,2,3,4-tetrahydro-pyrido[4,3-b]indol-5-yl)-1-hydroxy-ethyl]-pyridine-2-carboxylic acid amide], for which the “Percentage inhibition of ligand binding, Adrenergic α1B (0.03 μM)” value in assay [1] (setting [6]) was 36%. Besides, the “Percentage inhibition of ligand binding, Adrenergic α1B (0.1 μM)” value (“Percentage inhibition … (0.1 μM)” for short) in assay [1] (setting [7]) was 60% and 66%. The inhibition at 0.03 µM in assay [1] (setting [8]) stood at 28%. Further, in assay [1] (read-out: Percentage inhibition of ligand binding, Adrenergic α1B (0.1 μM), compound at 0.1 μM, repeat datapoints each shown), the inhibition at 0.1 µM was determined as 53%. Besides, the systolic blood pressure entry in assay [2] (i.v. bolus in 2 minutes (FIG. 19)) is “marked reduction in systolic blood pressure”.
As for `Cc1ccc2c(c1)c1c(n2CC(O)c2ccncc2)CCN(C)C1` (centres unmarked) [compound 3], the inhibition at 0.03 µM in assay [1] (setting [9]) came to 24%. In assay [1] (setting [4]), the “Percentage inhibition of ligand binding, Adrenergic α1B” value came out at 54%. For the same compound, the inhibition at 0.1 µM in assay [1] (setting [10]) is 51%. Further, the systolic blood pressure entry in assay [2] (setting [5]) is given as “dose-dependent reduction in systolic blood pressure”.
Take `CN1CCc2c(n(CC(O)c3ccncc3)c3ccc(Cl)cc23)C1` (single isomer, unassigned) [41a]: the “Percentage inhibition of ligand binding, Adrenergic α1B” value in assay [1] (setting [4]) is listed as 43%. Moreover, the systolic blood pressure result was “markedly lowered blood pressure” in assay [2] (setting [5]); “robust and long lasting reduction in systolic blood pressure” with healthy dogs (acute studies, oral gavage). Also, in the assay on healthy dogs (6 mg/kg oral gavage), the heart rate entry is reported as “slight decrease or neutral effect”.
For `Cc1ccc2c(c1)c1c(n2CC(O)c2ccncc2)CCN(C)CC1` (single isomer, unassigned) [13b, 2-(3,9-dimethyl-2,3,4,5-tetrahydroazepino[4,5-b]indol-6(1H)-yl)-1-(pyridin-4-yl)ethanol], the inhibition at 0.03 µM in assay [1] (setting [9]) was determined as 68%. For the same compound, the inhibition at 0.1 µM in assay [1] (setting [10]) turned out to be 91%. Also, the systolic blood pressure result in assay [2] (setting [5]) is given as “lowered systolic blood pressure”.
With `Cc1ccc2c(c1)c1c(n2CC(O)c2ccncc2)CCN2CCCC12` (single isomer, unassigned) [129d], the “Percentage inhibition of ligand binding, Adrenergic α1B (0.03 μM)” value in assay [1] (setting [6]) is listed as 93%. Also, in assay [1] (setting [7]), the “Percentage inhibition … (0.1 μM)” value was 94% and 99%. In assay [2] (oral or iv bolus or i.v. escalating doses), the heart rate result is “tachycardia”. Besides, the “effects on systolic blood pressure” value in assay [2] (oral or iv bolus or i.v. escalating doses (FIGS. 23-25)) was “robust”.
As to `Cc1ccc2c(c1)c1c(n2CC(C)(O)c2cnccn2)CCN2CCCC12` (single isomer, unassigned) [176a], in assay [1] (setting [7]), the “Percentage inhibition … (0.1 μM)” value is 79%. The inhibition at 0.03 µM in assay [1] (setting [8]) stood at 52%. Moreover, in assay [2], the “systolic blood pressure lowering effects” value is given as “robust”.
Regarding `Cc1cnc2c(c1)c1c(n2CC(C)(O)c2cccnc2)CCN2CCCC12` (single isomer, unassigned) [26a], the inhibition at 0.03 µM in assay [1] (setting [9]) stood at 32%. For the same compound, the “Percentage inhibition of ligand binding, Adrenergic α1B” value in assay [1] (setting [4]) was 52% and 61%. The “systolic blood pressure lowering effects” value in assay [2] is “robust”.
With `Cc1ccc2c(c1)c1c(n2CC(C)(O)c2cccnc2)CCN(C)C1` (single isomer, unassigned) [5b, 1-(1,2,3,4-tetrahydro-2,8-dimethylpyrido[4,3-b]indol-5-yl)-2-(pyridin-3-yl)propan-2-ol], affinity in assay [1] was put at a Ki of 184 nM. Further, the “Percentage inhibition of ligand binding, Adrenergic α1B” value in assay [1] (setting [3]) is 11% and 15%; in assay [1] (setting [4]) it was 23% and 30% and 33%. The inhibition at 0.03 µM in assay [1] (setting [9]) was 10%. Besides, in the assay with healthy dogs (acute studies, oral gavage), the systolic blood pressure entry was “dose-dependently reduced systolic blood pressure”.
Turning to `Cc1ccc2c(c1)c1c(n2CC(N)c2ccncc2)CCN(C)C1` (single isomer, unassigned) [27a, 2-(1,2,3,4-tetrahydro-2,8-dimethylpyrido[4,3-b]indol-5-yl)-1-(pyridin-4-yl)ethanamine], the inhibition at 0.03 µM in assay [1] (setting [9]) worked out at 34%. Besides, in assay [1] (setting [4]), the “Percentage inhibition of ligand binding, Adrenergic α1B” value was 59% and 64%. Also, the “systolic blood pressure lowering effects” value in assay [2] is reported as “robust”. For the same compound, the heart rate entry in assay [2] (when systolic blood pressure falls (data not shown)) was “neutral effect on heart rate”.
